Measured values taken from patent EP2974714B1, “USE OF DERIVATIVES WITH C-O-P BONDS IN PATIENTS WITH RENAL FAILURE” (LABORATORIS SANIFIT, S.L., priority 2013, dated 2014).
pEC50: −log10 of the molar value.

Key:
[1] = test system: proteins; assay: Binding of IP6 to proteins (dialysability); type: in vitro ADME
[2] = In vitro affinity (adsorption) of IP6 for hydroxyapatite; type: binding; conditions: for maximum adsorption of IP6 on the HAP surface: 7.6 µM IP6 for 8 hours
Protocol: […] The total quantity of IP6 bound to the surface of the target (HAP) was quantified.
To characterise the behaviour of IP6 binding, the EC50 and Emax for the adsorption thereof on HAP were calculated. This was performed using a non-linear regression model (Log[agonist] vs. response - slope variable; GraphPad Prism software).

[3] = PK profile of IP6 s.c. in rats with normal and diminished kidney function; type: in vivo, Wistar rats
Protocol: Experimental: a single s.c. dose (10 mg/kg) was administered to rats with normal kidney function. Plasma samples were obtained at different timepoints up to 60 minutes. A different group of Wistar rats received oral treatment with adenine 600 mg/kg (p.o.) for 10 days to induce renal impairment. Alpha-calcidol (300 ng/kg) was administered on days 11 and 13 and plasma samples were collected at different timepoints up to 60 minutes on day 14. The plasma IP6 concentrations were quantified for both groups.

[4] = PK profile of IP6 by 4 h intravenous infusion in normal and uraemic rats; type: in vivo, Wistar rats
Protocol: Experimental: Wistar rats with normal kidney function were treated daily with a dose of 10 or 50 mg/kg IP6 by intravenous infusion over 4 h. Plasma samples were obtained at different timepoints up to 4 hours on day 0. The animals were then treated orally with 600 mg/kg (p.o.) adenine for 10 days to induce renal impairment. The animals were treated with alpha-calcidol (300 ng/kg) on days 11 and 13 and plasma samples were collected at different timepoints up to 4 hours on day 14. The plasma IP6 levels were quantified for both groups.

[5] = test system: vitamin D-induced cardiovascular calcification in rats; assay: Inhibition of vit D-induced (75,000 IU/kg x 5) cardiovascular calcification by intravenous IP6; type: in vivo, male Sprague Dawley (SD) rats
Protocol: Experimental: male Sprague Dawley (SD) rats were divided into 7 groups and IP6 was administered intravenously daily for 14 days at a dose of 0, 0.05, 0.1, 0.5, 1, 5 and 10 mg/kg. Calcification was induced by oral administration of 75,000 IU/kg vitamin D on treatment days 3 to 7. Samples were collected. On day 14 the aortas and hearts of the animals were collected to quantify calcification.

[6] = test system: tissue calcification in a chronic renal impairment model (5/6 nephrectomised rats); assay: 5/6 nephrectomy model, IP6 by i.v. bolus; type: in vivo, SD rats; conditions: i.v. bolus 1 or 5 mg/kg, 8 weeks
Protocol: Experimental: 48 SD rats were 5/6 nephrectomised by complete right lateral nephrectomy and 2/3 partial nephrectomy of the left kidney. 16 animals per group were treated intravenously (bolus) with 2 ml/kg saline, 1 mg/kg IP6 or 5 mg/kg IP6. The animals received a phosphate-rich diet (1% Ca, 1.2% P) containing 20% lactose. After 8 weeks the aorta, heart and remaining 1/3 kidney were collected, and the tissue calcium content determined.

[7] = test system: tissue calcification in uraemic animals; assay: Adenine model, non-bolus-type intravascular administration; type: in vivo, male Wistar rats
Protocol: Experimental: CKD was induced in 2 groups (n=12) of male Wistar rats by oral (p.o.) treatment with adenine (600 mg/kg/day) daily for 10 days. After treatment with adenine, the rats received alpha-calcidol at a dose of 300 ng/kg (3x/week, p.o.) until day 28. From day 0 until sacrifice (day 28), the animals were treated with an intravascular infusion of 50 mg/kg IP6 or saline for 4 hours. After 28 days the aorta and heart were collected, and the tissue calcium content determined.

[8] = test system: cardiovascular function; assay: Cardiovascular function after 2 h intravascular infusion in conscious dogs by telemetry; type: in vivo; conditions: for peak IP6 levels: dogs
Protocol: Experimental: 4 male dogs were treated with 3, 10 and 30 mg/kg IP6 by infusion for 2 h in a Latin square design. A washout period of one week was performed between doses. ECGs were measured telemetrically at 1 h and 20 minutes prior to infusion and 5, 15, 30, 45 minutes, 1, 2, 6 and 24 h post-infusion. In a second stage, blood samples were taken for PK, for the same doses, at 20 minutes prior to infusion and 5, 15, 30 minutes and 1, 1.5, 2, 3 and 6 h post-infusion. In this case the washout period between doses was 2 days. Total and free calcium in the blood samples was also measured.

[9] = Administration of IP6 via the dialysis system (dialysability, calcium chelation in blood); type: in vitro ADME, human
Protocol: Experimental: 1 litre of human blood obtained from patients undergoing therapeutic phlebotomy was introduced into a recipient forming a closed dialysis circuit to simulate a real dialysis. Two experiments were performed (administration pre- and post-dialyser, both in bypass and dialysis mode), administering IP6 to human blood for 20 minutes when outside the recipient (which simulated the animal or human body) and circulating via the dialysis circuit. The recipient containing 1 litre of whole blood at a controlled temperature of 37°C is connected to the dialysis apparatus to form a closed circuit. The dialysis apparatus will be connected for 1 hour (dialysis fluid flow of 500 ml/min and blood flow of 350 ml/min). Blood samples are collected at different times to determine the IP6 and ionic calcium levels.

[10] = HAP crystallisation induction period (synergy with other treatments); type: physicochemical
Protocol: Experimental: hydroxyapatite (HAP) was crystallised by mixing appropriate concentrations of calcium and phosphate at pH 7.4. The effect of cinacalcet and sevelamer was simulated by suitably modifying the calcium and phosphate concentrations. The induction period (time required for HAP to begin to crystallise) was recorded as the analytical signal.

[11] = normal Wistar rats, single s.c. dose 10 mg/kg
[12] = uraemic rats (adenine), s.c. 10 mg/kg
[13] = uraemic rats, 10 mg/kg i.v. infusion over 4 h
[14] = uraemic rats, 50 mg/kg i.v. infusion over 4 h
[15] = i.v. dose of between 1 and 10 mg/kg daily for 14 days
[16] = intravascular infusion of 50 mg/kg for 4 hours, 28 days, adenine uraemic rats

With `O=P(O)(O)O[C@H]1[C@H](OP(=O)(O)O)[C@@H](OP(=O)(O)O)[C@H](OP(=O)(O)O)[C@@H](OP(=O)(O)O)[C@H]1OP(=O)(O)O` [IP6, inositol hexaphosphate] as the compound, how does the “binding of IP6 to proteins” value [1] read?
The value was 70-90%.

And the “compound available to be dialysed” value [1]?
The value was 10-30%.

And the “maximum adsorption of IP6 on the HAP surface” value ([2]; 25 mg HAP)?
The value was 6.42 mg.

What about the pEC50 ([2]; 25 mg HAP, non-linear regression) of the same compound?
Its pEC50 is 6.34.

And the pEC50 ([2]; 75 mg HAP, non-linear regression)?
Its pEC50 is 6.02.

And the pEC50 ([2]; 130 mg HAP, non-linear regression)?
The pEC50 was 5.91.

What about the “maximum adsorption of IP6 on the HAP surface” value ([2]; 300 mg HAP) of the same compound?
Its value is 4.8 mg.

What about the pEC50 ([2]; 300 mg HAP, non-linear regression) of the same compound?
Its pEC50 is 5.68.

And the “IP6 concentration at saturation of adsorption on HAP” value ([2]; 37°C, pH 7.4)?
Its value is at least 7.6 µM.

And the “Emax for adsorption on HAP (saturation value)” value ([2]; non-linear regression)?
Its value is 6.42 mg/g.

And the “duration of measurable levels” value [3, 11]?
The value was “at least 30 minutes”.

What about the “peak concentration (plasma IP6)” value [3, 11] of the same compound?
Its value is 7.4 µM.

What about the “time of peak concentration post-administration” value [3, 11] of the same compound?
Its value is 15 min.

What about the “peak concentration (plasma IP6)” value [3, 12] of the same compound?
Its value is 1.8 µM.

What about the “time of peak concentration post-administration” value [3, 12] of the same compound?
The value was 5 min.

What about the concentration at 4 h ([4]; Wistar, rat, plasma, iv, uraemic rats, 10 mg/kg i.v. infusion over 4 h, read-out: plasma concentration after 4 hours) of the same compound?
The concentration at 4 h was 1200 nM.

And the peak plasma concentration ([4]; normal rats, 10 mg/kg i.v. infusion over 4 h)?
The peak plasma concentration was 8.4 µM.

What about the peak plasma concentration ([4]; normal rats, 50 mg/kg i.v. infusion over 4 h) of the same compound?
Its peak plasma concentration is 68.4 µM.

What about the peak concentration [4, 13] of the same compound?
The peak concentration was 2.8 µM.

What about the “time of peak concentration” value [4, 13] of the same compound?
Its value is 30 min.

And the peak plasma concentration [4, 14]?
Its peak plasma concentration is 24.6 µM.

What about the “time of peak plasma concentration” value [4, 14] of the same compound?
Its value is 4 h.

What about the “period with approximately constant concentration” value ([4]; uraemic rats, 50 mg/kg i.v. infusion, from hour 1 to hour 4) of the same compound?
The value was 3 h.

What about the “effect on the mineral content of the aorta and heart” value ([5]; i.v. 0.05 to 0.5 mg/kg daily for 14 days) of the same compound?
Its value is “did not affect”.

What about the “reduction of calcification in aorta” value [5, 15] of the same compound?
The value was “up to 60%”.

And the “reduction of calcification in heart” value [5, 15]?
Its value is at most 68%.

What about the “calcification inhibition (aorta, heart, remaining kidney)” value [6] of the same compound?
The value was “no evidence of calcification inhibition”.

What about the “reduction of plasma IP6 levels by the end of the experiment” value ([7]; due to high metabolic rate, 50 mg/kg infusion, uraemic rats) of the same compound?
Its value is 90%.

What about the “reduction in average calcification in the aorta” value [7, 16] of the same compound?
Its value is 80%.

What about the “reduction in average calcification in the heart” value [7, 16] of the same compound?
The value was 85%.

What about the “peak IP6 levels” value ([8]; 3 mg/kg infusion for 2 h) of the same compound?
Its value is 27 µM.

What about the “peak IP6 levels” value ([8]; 10 mg/kg infusion for 2 h) of the same compound?
The value was 150 µM.

What about the “peak IP6 levels” value ([8]; 30 mg/kg infusion for 2 h) of the same compound?
The value was 482 µM.

And the “mean blood ionic calcium concentrations” value ([8]; infusion for 2 h, 3, 10 and 30 mg/kg)?
Its value is “unaffected”.

And the “state of health, weight, cardiorespiratory function, ECG, body temperature and total and free potassium in blood” value ([8]; infusion for 2 h, 3, 10 and 30 mg/kg (any dose))?
Its value is “relatively unaffected”.

What about the “loss of IP6 via the dialysis membrane” value ([9]; administration via the dialysis line for 20 minutes, 1 litre human blood, 37°C) of the same compound?
Its value is “not lost via the dialysis membrane”.

What about the “effect on free calcium in blood” value ([9]; apparatus in bypass mode) of the same compound?
The value was “chelates (sequesters) free calcium”.

What about the “effect on ionic calcium levels in blood” value ([9]; apparatus in dialysis mode) of the same compound?
Its value is “ionic calcium levels are restored”.

And the “induction time (time required for HAP to begin to crystallise)” value ([10]; 11.4 µM IP6, pH 7.4, control 8 minutes)?
The value was 28 min.

What about the “effect of adding IP6 to simulated cinacalcet and sevelamer” value ([10]; IP6 0-11.4 µM with constant simulated concentration of cinacalcet or sevelamer) of the same compound?
Its value is “clear synergistic effect”.
